We go through 13 compounds from PubChem BioAssay (NCI).

Some test systems named below: EKVX NSCLC; HT29 colon; M14 melanoma; NCI-H460 lung; NCI-H522 lung; OVCAR-3 ovarian; CCRF-CEM leukemia; MOLT-4 leukemia.
Holding throughout (assay): NCI tumour cell line growth inhibition, 48 h

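The compound was tested at five concentrations on cells cultured in 96-well plates, with a 48-hour exposure period. Here, GI50 denotes the concentration required for 50% inhibition of growth. The concentration for full growth arrest is given as TGI.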

As to `C/C(=N\NS(=O)(=O)c1ccc(C)cc1)P(=O)(O)O`, the TGI in the experiment on EKVX NSCLC, with HT29 colon, in the experiment with M14 melanoma, in the experiment on NCI-H460 lung, with NCI-H522 lung and with OVCAR-3 ovarian was more than 100 µM in each case.

As for `[N-]=[N+]=NCCCCCC(=O)OC(C(=O)c1ccccc1)c1cccc(OCC(=O)NCCOCCOCCNC(=O)CCCC[C@@H]2SC[C@@H]3NC(=O)N[C@@H]32)c1` (stereo not given in full), the GI50 was 52.2 µM in the experiment with CCRF-CEM leukemia; more than 100 µM in the experiment with EKVX NSCLC; more than 100 µM in the experiment on HT29 colon; more than 100 µM with M14 melanoma; 43.8 µM with MOLT-4 leukemia; more than 100 µM in the experiment on NCI-H460 lung. Further, the GI50 in the experiment with NCI-H522 lung was more than 100 µM. The TGI with CCRF-CEM leukemia, in the experiment on EKVX NSCLC, with HT29 colon, in the experiment on M14 melanoma, in the experiment with MOLT-4 leukemia and in the experiment with NCI-H460 lung was more than 100 µM in each case. This compound displayed a TGI in the experiment with NCI-H522 lung of more than 100 µM.

For the compound `O=C(c1ccccc1)C1OC1c1ccc([N+](=O)[O-])cc1` (stereo not given), the GI50 was 2.89 µM in the experiment on CCRF-CEM leukemia; 22.8 µM with EKVX NSCLC; 3.75 µM with HT29 colon; 2.98 µM with M14 melanoma; 10 µM in the experiment on NCI-H460 lung; 2.13 µM in the experiment on NCI-H522 lung. Further, the GI50 in the experiment on OVCAR-3 ovarian is 3.84 µM. Also, the TGI in the experiment with CCRF-CEM leukemia was more than 100 µM; with EKVX NSCLC it was more than 100 µM; in the experiment on HT29 colon, 14.5 µM; in the experiment on M14 melanoma, 12.9 µM; in the experiment with NCI-H460 lung it was 40.2 µM; in the experiment with NCI-H522 lung it was 7.11 µM. Also, the TGI with OVCAR-3 ovarian worked out at 17.8 µM.

`CCC(=C/[C@H](C)C/C=C/C(C)=C/[C@@H](C)C(=O)[C@@H](C)[C@H](O)[C@@H](C)CC)/C=C/[C@@H]1OC(=O)C=C[C@H]1C`: the GI50 is 0.0201 µM in the experiment with CCRF-CEM leukemia; less than 0.01 µM in the experiment with EKVX NSCLC; less than 0.01 µM in the experiment with HT29 colon; less than 0.01 µM in the experiment with M14 melanoma; less than 0.01 µM in the experiment with NCI-H522 lung; less than 0.01 µM with OVCAR-3 ovarian. In addition, the TGI in the experiment with CCRF-CEM leukemia is 0.16 µM; with EKVX NSCLC it was 13 µM; in the experiment with HT29 colon, 1.4 µM; in the experiment with M14 melanoma, 0.0103 µM; in the experiment with NCI-H522 lung, less than 0.01 µM; in the experiment with OVCAR-3 ovarian, less than 0.01 µM.

Turning to `C/C1=C/C(=O)O[C@@H]2C[C@@H](CC[C@H](C)/C=C\C=C\CC1)O[C@@](O)([C@@H]1CSC(=O)N1)C2`, the TGI was more than 10 µM in the experiment with CCRF-CEM leukemia; more than 5.52 µM in the experiment with EKVX NSCLC; more than 10 µM in the experiment on HT29 colon; 3.75 µM in the experiment on M14 melanoma; more than 10 µM in the experiment with MOLT-4 leukemia; more than 10 µM in the experiment with NCI-H460 lung. In addition, the TGI in the experiment with OVCAR-3 ovarian is 4.25 µM.

With `CC(C)(C)c1cc(-n2c(-c3ccc(Cl)cc3)nc3cc(C(=O)Nc4ccc(Cl)cc4)ccc32)n[nH]1`, the GI50 with HT29 colon was more than 100 µM; in the experiment on NCI-H460 lung, 3.57 µM; with NCI-H522 lung, 3.9 µM; in the experiment on OVCAR-3 ovarian, 3.63 µM. Further, the TGI with HT29 colon was more than 100 µM; in the experiment with NCI-H460 lung, more than 100 µM; in the experiment on NCI-H522 lung, 94.8 µM; in the experiment with OVCAR-3 ovarian, 23.2 µM.

For `COc1ccc2ccccc2c1C1NC(=O)c2ccccc2N1` (stereo not given), the TGI was more than 28.3 µM in the experiment with CCRF-CEM leukemia; more than 100 µM in the experiment on EKVX NSCLC; 10.2 µM in the experiment on M14 melanoma; 9.2 µM in the experiment on MOLT-4 leukemia; 29.6 µM in the experiment with NCI-H460 lung; more than 25.6 µM in the experiment with NCI-H522 lung. Further, the TGI with OVCAR-3 ovarian stood at 1.92 µM.

Take `Nc1nnnn1CCO`: the TGI in the experiment with EKVX NSCLC, in the experiment on HT29 colon, in the experiment with M14 melanoma, in the experiment on NCI-H460 lung, in the experiment with NCI-H522 lung and in the experiment with OVCAR-3 ovarian was more than 100 µM in each case.

Turning to `c1ccc(CN2COc3c(ccc4c3OCN(Cc3ccccc3)C4)C2)cc1`, the GI50 in the experiment with CCRF-CEM leukemia is 0.451 µM; in the experiment on HT29 colon, 0.955 µM; with M14 melanoma, 0.49 µM; in the experiment with MOLT-4 leukemia, 0.409 µM; in the experiment with NCI-H460 lung, 0.399 µM; with NCI-H522 lung, 2.05 µM. Moreover, the GI50 in the experiment with OVCAR-3 ovarian is 0.64 µM. Moreover, the TGI in the experiment with CCRF-CEM leukemia, in the experiment on HT29 colon, in the experiment on M14 melanoma, in the experiment with MOLT-4 leukemia, in the experiment on NCI-H460 lung and with NCI-H522 lung was more than 100 µM throughout. The compound further came in with a TGI in the experiment on OVCAR-3 ovarian of more than 89.8 µM.

For `O=C(Nc1ccc(Cl)c(Cl)c1)Nc1c(Oc2ccc(Cl)c(Cl)c2)ccc(Cl)c1S(=O)(=O)O`, the GI50 with CCRF-CEM leukemia was 4.03 µM; in the experiment on HT29 colon, 1.84 µM; in the experiment on M14 melanoma, 1.09 µM; in the experiment on MOLT-4 leukemia, 4.1 µM; with NCI-H460 lung it was 3.01 µM. Further, the TGI with CCRF-CEM leukemia, with HT29 colon, in the experiment on M14 melanoma, in the experiment on MOLT-4 leukemia and in the experiment with NCI-H460 lung was more than 100 µM in each case.

With `Oc1ccc(C(c2ccc(O)cc2)c2ccc(O)cc2)cc1`, the TGI in the experiment on CCRF-CEM leukemia was 92.6 µM; in the experiment with EKVX NSCLC, 46.8 µM; in the experiment on HT29 colon, 41.6 µM; with MOLT-4 leukemia it was 52.2 µM; in the experiment with NCI-H460 lung, 46.3 µM; in the experiment with NCI-H522 lung it was 32.9 µM.

In the case of `CO/N=C(\C)c1ccc(Nc2cc(-c3ccccc3)nc3ccc(OC)cc23)cc1`, the GI50 with EKVX NSCLC was 3.27 µM; in the experiment on HT29 colon, 5.33 µM; in the experiment on M14 melanoma it was 2.35 µM; with MOLT-4 leukemia, 3.38 µM; with NCI-H460 lung, 6.69 µM; in the experiment with NCI-H522 lung, 4.4 µM. Also, the TGI with EKVX NSCLC was 8.53 µM; in the experiment on HT29 colon, more than 100 µM; with M14 melanoma it was 4.77 µM; in the experiment on MOLT-4 leukemia, 25.2 µM; in the experiment on NCI-H460 lung it was more than 100 µM; with NCI-H522 lung it was more than 100 µM.

For the compound `NCCCCCCCn1c2c(c3ccccc3c1=O)C(=O)c1ccccc1-2`, the GI50 with CCRF-CEM leukemia was 0.648 µM; with EKVX NSCLC it was 10 µM; with HT29 colon, 1.29 µM; with M14 melanoma, 1.68 µM; in the experiment with NCI-H460 lung it was 0.478 µM; in the experiment with NCI-H522 lung it was 1.58 µM. Further, the GI50 in the experiment on OVCAR-3 ovarian was 1.86 µM. The TGI was found to be 2.19 µM in the experiment with CCRF-CEM leukemia; 21.7 µM with EKVX NSCLC; 2.6 µM with HT29 colon; 3.06 µM in the experiment with M14 melanoma; 2.59 µM with NCI-H460 lung; 3.46 µM in the experiment with NCI-H522 lung. In the experiment on OVCAR-3 ovarian, this compound showed a TGI of 4.1 µM.
